Measured values taken from ChEMBL document CHEMBL1201862, “PubChem BioAssay data set” (2004).
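These data come from cells grown in 96-well plates and exposed to compound for 48 hours at five concentrations. GI50 marks 50% less growth.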 The source made the active and inactive calls. Cut-off read from the data, not from the text of the source: active = GI50 up to about 1.1 µM and inactive = higher.

Key:
Assay in all cases: growth of human tumour cells (NCI), 48 h
[1] = system: UACC-62
[2] = system: OVCAR-8
[3] = system: SF-539
[4] = system: NCI-H460
[5] = system: HCT-15
[6] = system: T47D
[7] = system: CCRF-CEM
[8] = system: ACHN
[9] = system: DU-145
[10] = system: HCC 2998
[11] = system: COLO 205
[12] = system: NCI/ADR-RES
[13] = system: TK-10
[14] = system: OVCAR-5
[15] = system: SK-MEL-5
[16] = system: Hs-578T
[17] = system: NCI-H23
[18] = system: OVCAR-4
[19] = system: HT-29
[20] = system: K562

Structure (SMILES): CC(=O)O[C@H]1C(=O)[C@@]2(C)[C@H]([C@H](OC(=O)c3ccccc3)[C@]3(O)C[C@H](OC(=O)[C@H](O)[C@@H](NC(=O)c4cccc(N=[N+]=[N-])c4)c4ccccc4)C(C)=C1C3(C)C)[C@]1(OC(C)=O)CO[C@@H]1C[C@@H]2O
- GI50 [1]: 0.00731 µM (active)
- GI50 [2]: 0.00798 µM (active)
- GI50 [3]: < 0.0025 µM (active)
- GI50 [4]: 0.00859 µM (active)
- GI50 [5]: 0.662 µM
- GI50 [6]: 0.0338 µM (active)
- GI50 [7]: 0.00331 µM (active)
- GI50 [8]: 0.327 µM (active)
- GI50 [9]: 0.0208 µM (active)
- GI50 [10]: 0.0634 µM (active)
- GI50 [11]: 0.00301 µM (active)
- GI50 [12]: 8.32 µM (inactive)
- GI50 [13]: 0.117 µM (active)
- GI50 [14]: 0.00893 µM (active)
- GI50 [15]: 0.00507 µM (active)
- GI50 [16]: < 0.0025 µM (active)
- GI50 [17]: 0.00641 µM (active)
- GI50 [18]: 6.05 µM (inactive)
- GI50 [19]: < 0.0025 µM (active)
- GI50 [20]: < 0.0025 µM (active)

Structure (SMILES): O=c1c(-c2ccc(O)cc2)coc2cc(OC3OC(CO)C(O)C(O)C3O)cc(O)c12 (stereo not given)
- GI50 [1]: 81.3 µM (inactive)
- GI50 [2]: > 100 µM (inactive)
- GI50 [3]: 31.1 µM (inactive)
- GI50 [4]: 46.9 µM (inactive)
- GI50 [5]: > 100 µM
- GI50 [6]: > 10 µM (inactive)
- GI50 [7]: 38.8 µM (inactive)
- GI50 [8]: 54.5 µM (inactive)
- GI50 [9]: > 100 µM (inactive)
- GI50 [10]: > 100 µM (inactive)
- GI50 [11]: > 10 µM (inactive)
- GI50 [12]: > 10 µM (inactive)
- GI50 [13]: 33 µM (inactive)
- GI50 [14]: > 10 µM (inactive)
- GI50 [15]: > 10 µM (inactive)
- GI50 [16]: 61.1 µM (inactive)
- GI50 [17]: > 10 µM (inactive)
- GI50 [18]: > 10 µM (inactive)
- GI50 [19]: > 100 µM (inactive)
- GI50 [20]: > 10 µM (inactive)

Structure (SMILES): COc1cc(OC2OC(CO)C(O)C(O)C2O)c2c(c1)O[C@@H]1[C@H](O)Oc3cc(OC)c(OC)cc3[C@]1(O)C2=O (stereo not given in full)
- GI50 [1]: > 25 µM (inactive)
- GI50 [2]: > 25 µM (inactive)
- GI50 [3]: > 25 µM (inactive)
- GI50 [4]: > 25 µM (inactive)
- GI50 [5]: > 25 µM
- GI50 [6]: > 25 µM (inactive)
- GI50 [7]: > 25 µM (inactive)
- GI50 [8]: > 25 µM (inactive)
- GI50 [9]: > 25 µM (inactive)
- GI50 [10]: > 25 µM (inactive)
- GI50 [11]: > 25 µM (inactive)
- GI50 [12]: > 25 µM (inactive)
- GI50 [13]: > 25 µM (inactive)
- GI50 [14]: > 25 µM (inactive)
- GI50 [15]: > 25 µM (inactive)
- GI50 [16]: > 25 µM (inactive)
- GI50 [17]: > 25 µM (inactive)
- GI50 [18]: > 25 µM (inactive)
- GI50 [19]: > 25 µM (inactive)
- GI50 [20]: > 25 µM (inactive)

Structure (SMILES): N#Cc1c(C#N)c(-c2ccco2)n(/N=C/c2ccco2)c1N
- GI50 [1]: > 100 µM (inactive)
- GI50 [2]: 23.3 µM (inactive)
- GI50 [3]: 23.9 µM (inactive)
- GI50 [4]: > 100 µM (inactive)
- GI50 [5]: 29.6 µM
- GI50 [6]: 2.93 µM (inactive)
- GI50 [7]: > 100 µM (inactive)
- GI50 [8]: > 100 µM (inactive)
- GI50 [9]: 39 µM (inactive)
- GI50 [10]: > 100 µM (inactive)
- GI50 [11]: > 100 µM (inactive)
- GI50 [12]: 65.9 µM (inactive)
- GI50 [13]: 96.6 µM (inactive)
- GI50 [14]: > 100 µM (inactive)
- GI50 [15]: > 100 µM (inactive)
- GI50 [16]: 17.4 µM (inactive)
- GI50 [17]: > 100 µM (inactive)
- GI50 [18]: 76.9 µM (inactive)
- GI50 [19]: > 100 µM (inactive)
- GI50 [20]: > 100 µM (inactive)

Structure (SMILES): NNC(=O)c1ccccc1Nc1nc(-c2cccs2)nc2ccc(Br)cc12
- GI50 [1]: > 100 µM (inactive)
- GI50 [2]: 55 µM (inactive)
- GI50 [3]: > 100 µM (inactive)
- GI50 [4]: 87.3 µM (inactive)
- GI50 [5]: 14.7 µM
- GI50 [6]: 47.8 µM (inactive)
- GI50 [7]: > 100 µM (inactive)
- GI50 [8]: > 100 µM (inactive)
- GI50 [9]: > 100 µM (inactive)
- GI50 [10]: 90.4 µM (inactive)
- GI50 [11]: > 100 µM (inactive)
- GI50 [12]: > 100 µM (inactive)
- GI50 [13]: > 100 µM (inactive)
- GI50 [14]: > 100 µM (inactive)
- GI50 [15]: 74 µM (inactive)
- GI50 [16]: > 100 µM (inactive)
- GI50 [17]: > 100 µM (inactive)
- GI50 [18]: 6.7 µM (inactive)
- GI50 [19]: 78.5 µM (inactive)
- GI50 [20]: 77.6 µM (inactive)

Structure (SMILES): COc1c(OC/C=C(\C)CCC=C(C)C)ccc2ccc(=O)oc12 [COLLININ]
- GI50 [1]: 94.2 µM (inactive)
- GI50 [2]: > 100 µM (inactive)
- GI50 [3]: > 100 µM (inactive)
- GI50 [4]: > 10 µM (inactive)
- GI50 [5]: 64.9 µM
- GI50 [6]: 62.5 µM (inactive)
- GI50 [7]: > 100 µM (inactive)
- GI50 [8]: > 100 µM (inactive)
- GI50 [9]: > 100 µM (inactive)
- GI50 [10]: > 100 µM (inactive)
- GI50 [11]: > 100 µM (inactive)
- GI50 [12]: 95.9 µM (inactive)
- GI50 [13]: > 100 µM (inactive)
- GI50 [14]: > 100 µM (inactive)
- GI50 [15]: 48.1 µM (inactive)
- GI50 [16]: 90.4 µM (inactive)
- GI50 [17]: > 100 µM (inactive)
- GI50 [18]: 51.8 µM (inactive)
- GI50 [19]: 94.4 µM (inactive)
- GI50 [20]: > 100 µM (inactive)

Structure (SMILES): O=C1Nc2ccccc2C(=O)/C1=C/NC(=S)NC1CCCCC1
- GI50 [1]: > 100 µM (inactive)
- GI50 [2]: > 100 µM (inactive)
- GI50 [3]: > 100 µM (inactive)
- GI50 [4]: > 100 µM (inactive)
- GI50 [5]: > 100 µM
- GI50 [6]: > 100 µM (inactive)
- GI50 [7]: > 100 µM (inactive)
- GI50 [8]: > 100 µM (inactive)
- GI50 [9]: > 100 µM (inactive)
- GI50 [10]: > 100 µM (inactive)
- GI50 [11]: > 100 µM (inactive)
- GI50 [12]: > 100 µM (inactive)
- GI50 [13]: > 100 µM (inactive)
- GI50 [14]: > 100 µM (inactive)
- GI50 [15]: > 100 µM (inactive)
- GI50 [16]: > 100 µM (inactive)
- GI50 [17]: > 100 µM (inactive)
- GI50 [18]: > 100 µM (inactive)
- GI50 [19]: > 100 µM (inactive)
- GI50 [20]: > 100 µM (inactive)
